Reference: ChEMBL document CHEMBL1201862, “PubChem BioAssay data set” (2004)
The source made the active and inactive calls.

Tests used:
[1] = system: HEK293; assay: Fluorescence-based counterscreen for potentiators or agonists of NPY-Y2: cell-based high-throughput dose response assay to identify inhibitors of cyclic nucleotide gated ion channel (CNGC) activity. In this assay, the parental HEK293 cell line transfected with a cyclic-nucleotide gated ion channel (CNGC)-based cAMP sensor is used to measure inhibition of isoproterenol-induced CNGC activity by test compound.; assay type: functional; settings: Homo sapiens;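 further: stimulus is 1 µM isoproterenol at EC100 plus PDE inhibitor Ro 20-1724 at 25 µM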
[2] = biological target: Galanin receptor type 2 (Homo sapiens, UniProt O43603); assay: Dose Response cell-based high-throughput screening assay to identify antagonists of galanin receptor 2 (GALR2). [Related pubchem assays: 828, 866 ]; assay type: functional
[3] = activation of miR-122 Renilla sensor silencing – cell-based, Huh7 psiCHECK-miR122, Renilla luciferase, cherry-picked, dose response (AID 651956); assay type: functional;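 further: huh7 hepatoma cells stably carrying a psiCHECK-2 miR-122 sensor plasmid; renilla luciferase signal reporting endogenous miR-122 activity after 48 h compound exposure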
[4] = biological target: T1, Neuropeptide Y receptor type 1 (Homo sapiens, UniProt P25929); assay: Fluorescence-based counterscreen for agonists of NPY-Y2: cell-based high-throughput dose response assay for agonists of NPY-Y1.; assay type: functional
[5] = general mammalian cell viability loss – inhibitor set, cherry-pick, set 2, cytotoxicity control for miR-122 modulator project, dose response (AID 720697); assay type: functional, cell-based
[6] = general mammalian cell viability loss – activator set, cherry-pick, cytotoxicity control for miR-122 modulator project, dose response (AID 720690); assay type: functional, cell-based;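 further: HEK293T human cells scored for general mammalian cytotoxicity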
[7] = HIV-1 AD8 envelope cell-cell fusion blockers – cherry-pick, dose response (AID 652062); assay type: functional, cell-based;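 further: luciferase signal from cell-cell fusion driven by HIV-1 clade B AD8 Env; potency is for inhibitors of fusion seen as a drop in luminescence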
[8] = biological target: T2, Neuropeptide Y receptor type 2 (Homo sapiens, UniProt P49146); assay: Fluorescence-based cell-based high-throughput dose response assay for agonists of NPY-Y2. [Related pubchem assays: 1703 (Screening assay (CNGC inhibitors).), 1359 (Screening assay (NPY-Y2 potentiators or agonists).), 1304 (Screening assay (NPY-Y1 potentiators or agonists).), 1710 (Screening assay (NPY-Y2 agonists).), 1791 (Summary AID.)]; assay type: functional
[9] = off-target signal loss in HeLa-CEM21 co-culture – HeLa F-luc CTL cells, cherry-picked, counter-screen for HIV-1 Env fusion inhibitor project, dose response (AID 652040); assay type: functional, cell-based;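 further: potency for signal decrease marking cytotoxic or nonspecific inhibition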
[10] = biological target: T3, COUP transcription factor 2 (Homo sapiens, UniProt P24468); assay: Luminescence-based cell-based high throughput dose response assay to identify inhibitors of COUP-TFII (NR2F2).; assay type: functional;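 further: HEK293 cells transiently cotransfected with COUP-TFII expression vector and reporter; luciferase reporter luminescence driven by COUP-TFII from the pX2-168 reporter plasmid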
T3 sequence (P24468 whole entry): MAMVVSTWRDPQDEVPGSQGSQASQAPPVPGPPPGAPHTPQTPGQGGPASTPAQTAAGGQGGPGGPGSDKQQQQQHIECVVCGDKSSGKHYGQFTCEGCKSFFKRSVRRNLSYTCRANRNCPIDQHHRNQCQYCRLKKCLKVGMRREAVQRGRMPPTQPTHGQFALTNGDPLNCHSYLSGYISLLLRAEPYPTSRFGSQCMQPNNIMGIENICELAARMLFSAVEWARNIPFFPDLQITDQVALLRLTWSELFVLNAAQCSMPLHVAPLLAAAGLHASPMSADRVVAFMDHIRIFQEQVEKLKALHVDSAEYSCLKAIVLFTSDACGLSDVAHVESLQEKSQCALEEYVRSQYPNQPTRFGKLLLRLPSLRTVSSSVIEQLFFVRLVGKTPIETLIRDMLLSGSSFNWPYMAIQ

[11] = system: INS1; assay: INS-1E survival protection against cytokine death – cell-based, luminescence, retest, dose response (AID 449756); assay type: functional; settings: Rattus norvegicus;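 further: cell death triggered by IL-1 beta plus TNF-alpha plus IFN-gamma mixture; protective hits raise ATP signal compared with cytokine alone wells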
[12] = viability of uninfected HEp-2 cells – cell-based, HTS, cytotoxicity control for RSV inhibitor project, dose response (AID 2410); assay type: functional; settings: human respiratory syncytial virus
[13] = biological target: NS3 (Hepatitis C virus, UniProt A3EZJ3); assay: PubChem AID 2173; parameters: species or system Hepacivirus hominis
[14] = system: H9c2; assay: cells; assay type: functional, cell-based; settings: Rattus norvegicus, H9c2, Myocardium;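 further: confirmatory concentration-response retest of ultra-high-throughput screening hits for modulation of myocardial damage; cell death induced by hydrogen peroxide oxidative stress; compound pretreatment for 60 min then peroxide exposure for 2 h; potency is for protecting the cells against peroxide damage rather than for killing them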
[15] = biological target: T2, Neuropeptide Y receptor type 2; assay type: functional, cell-based
[16] = biological target: T1, Neuropeptide Y receptor type 1; assay type: functional
[17] = restored growth of temperature-sensitive Burl-1 yeast – whole organism, S. cerevisiae, Burl-1 ts mutant, luminescence, counter-screen for SUMOylation pathway inhibitor project, dose response (AID 463199); assay type: functional

T1 sequence (P25929 whole entry): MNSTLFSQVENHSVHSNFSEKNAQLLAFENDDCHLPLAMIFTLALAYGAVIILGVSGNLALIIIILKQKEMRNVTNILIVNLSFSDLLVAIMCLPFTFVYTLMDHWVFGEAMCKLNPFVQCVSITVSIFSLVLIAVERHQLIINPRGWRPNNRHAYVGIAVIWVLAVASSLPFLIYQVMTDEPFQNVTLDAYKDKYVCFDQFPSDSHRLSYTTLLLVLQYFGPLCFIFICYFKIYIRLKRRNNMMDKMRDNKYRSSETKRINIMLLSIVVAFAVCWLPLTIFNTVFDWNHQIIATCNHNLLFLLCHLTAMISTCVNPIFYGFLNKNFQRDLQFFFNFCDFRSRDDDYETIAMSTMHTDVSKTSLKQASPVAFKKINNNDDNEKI
T2 sequence (P49146 whole entry, the tested form may be a part): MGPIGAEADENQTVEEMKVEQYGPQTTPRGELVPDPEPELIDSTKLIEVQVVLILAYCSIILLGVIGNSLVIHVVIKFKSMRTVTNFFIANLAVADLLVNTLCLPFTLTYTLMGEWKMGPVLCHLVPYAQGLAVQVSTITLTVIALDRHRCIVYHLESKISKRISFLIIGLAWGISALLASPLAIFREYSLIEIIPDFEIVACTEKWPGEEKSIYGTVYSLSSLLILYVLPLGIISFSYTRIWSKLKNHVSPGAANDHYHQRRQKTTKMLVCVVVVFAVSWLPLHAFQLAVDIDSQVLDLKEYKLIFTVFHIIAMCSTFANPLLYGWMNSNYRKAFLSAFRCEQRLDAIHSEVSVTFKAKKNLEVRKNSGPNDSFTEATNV
Galanin receptor type 2, sequence (O43603 whole entry): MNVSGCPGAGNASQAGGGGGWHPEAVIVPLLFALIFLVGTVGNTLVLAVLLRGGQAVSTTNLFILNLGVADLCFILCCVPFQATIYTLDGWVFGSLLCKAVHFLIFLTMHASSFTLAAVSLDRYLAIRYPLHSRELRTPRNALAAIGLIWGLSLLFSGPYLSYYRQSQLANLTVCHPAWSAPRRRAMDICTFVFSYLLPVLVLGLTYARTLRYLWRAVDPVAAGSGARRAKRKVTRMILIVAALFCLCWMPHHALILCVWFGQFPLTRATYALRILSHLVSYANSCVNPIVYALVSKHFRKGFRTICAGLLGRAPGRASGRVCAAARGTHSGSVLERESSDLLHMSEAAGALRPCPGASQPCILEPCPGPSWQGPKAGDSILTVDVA
NS3, sequence (A3EZJ3 whole entry): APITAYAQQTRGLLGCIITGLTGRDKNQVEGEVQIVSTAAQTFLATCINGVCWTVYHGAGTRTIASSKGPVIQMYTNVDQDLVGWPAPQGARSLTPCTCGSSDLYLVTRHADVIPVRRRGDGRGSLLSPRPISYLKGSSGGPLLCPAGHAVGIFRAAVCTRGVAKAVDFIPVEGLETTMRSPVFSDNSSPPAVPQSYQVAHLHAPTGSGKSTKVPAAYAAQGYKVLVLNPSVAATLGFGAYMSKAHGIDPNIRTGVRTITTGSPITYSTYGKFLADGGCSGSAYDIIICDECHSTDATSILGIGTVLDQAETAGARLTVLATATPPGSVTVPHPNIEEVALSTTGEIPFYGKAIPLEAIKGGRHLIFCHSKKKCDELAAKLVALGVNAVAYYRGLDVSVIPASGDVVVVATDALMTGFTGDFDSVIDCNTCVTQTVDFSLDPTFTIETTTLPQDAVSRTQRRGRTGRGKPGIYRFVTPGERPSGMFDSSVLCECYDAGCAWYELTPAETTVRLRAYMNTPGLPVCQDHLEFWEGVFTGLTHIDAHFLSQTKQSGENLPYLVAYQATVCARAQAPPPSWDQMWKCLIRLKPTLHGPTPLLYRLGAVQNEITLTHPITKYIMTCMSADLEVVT

SMILES: CC(=O)c1c(C)[nH]c(C(=O)OCCCCN2C(=O)c3ccccc3C2=O)c1C
- EC50 [1]: > 35.4 µM (not active)
- IC50 [2]: > 42 µM (not active)
- AC50 [3]: 38.4 µM (active)
- EC50 [4]: > 35.4 µM (not active)
- AC50 [5]: 7.33 µM (active)
- AC50 [6]: 12.5 µM (active)
- AC50 [7]: 6.13 µM (active)
- EC50 [8]: > 35.4 µM (not active)
- AC50 [9]: > 70 µM (inactive)
- IC50 [10]: 7.55 µM (active)
- AC50 [11]: 6.57 µM (active)

SMILES: Cc1cccc(NC2=NC(=O)/C(=C/C=C/c3ccco3)S2)c1C
- CC50 [12]: 12.1 µM (active)
- IC50 [13]: 5.49 µM (active)

SMILES: O=C(Nc1cccc(/N=C/c2cc(Br)cc(Br)c2O)c1)c1ccco1
- IC50 [14]: 10.8 µM (active)
- IC50 [15]: > 35 µM (not active)
- IC50 [16]: > 35 µM (not active)
- AC50 [17]: 57.9 µM (active)
